{
  "source": "patent US20220023273A1",
  "about": "“METHODS FOR TREATING SYMPTOMS AND DISORDERS ASSOCIATED WITH LYSOSOMAL STORAGE DISEASES” (GENZYME CORPORATION, priority 2019, published 2022)",
  "tested_on": "adult patients with Gaucher disease Type 3",
  "assay": "GD3 clinical study: horizontal and vertical saccadic eye movements",
  "assay_type": "in vivo, human",
  "settings": "GD3, 15 mg/day oral + imiglucerase",
  "description": "During the study patients were evaluated for safety and tolerability, CSF and plasma biomarkers (glucosylceramide, GL-1; glucosylsphingosine, lyso-GL1), pharmacokinetics, markers for systemic disease (spleen and liver volume measured by magnetic resonance imaging (MRI), platelet count, hemoglobin levels), indicia of interstitial lung disease (high resolution pulmonary computed tomography (CT)), and horizontal saccadic eye movement.\nQuantification of horizontal and vertical saccadic eye movements (HSEM and VSEM, respectively) was performed in all 5 patients. In the five patients, mean peak velocity (PV) of horizontal rightward 150 saccades was 50.8°/s (+/−8.1°/s) at baseline and […] (+/−12.6°/s) at Week 26: and the mean PV of horizontal leftward 150 saccades was 44.7°/s (+/−17.9°/s) at baseline and 32.3°/s (+/−15.9°/s) at Week 26. […]\nAt 52 weeks, quantification of horizontal and vertical saccadic eye movements was performed in all six patients in a similar manner as described in section (A). However, it was determined that the methodology used to account for noise (e.g., caused by blinking or head movements) may have introduced bias into the results. The method of accounting for noise was therefore modified, and a set of control criteria were developed to assess validity of the datasets obtained by the eye movement reader.",
  "data": [
    {"smiles": "CC(C)(NC(=O)O[C@@H]1CN2CCC1CC2)c1csc(-c2ccc(F)cc2)n1", "note": "[Compound 2, (S)-quinuclidin-3-yl (2-(2-(4-fluorophenyl)thiazol-4-yl)propan-2-yl)carbamate]", "values": [
      {"measurement": "VSEM measurements", "setting": "between baseline and week 26", "result": "stable"},
      {"measurement": "changes in HSEM", "setting": "over the 26-week treatment period", "result": "no clinically meaningful changes"}
    ]}
  ]
}
